According to patent US9067977B2, “Peptides derivatized with A-B-C-D- and their therapeutical use” (Novo Nordisk A/S, priority 2007, dated 2015):
Starred links: 1 amine or outer side, 2 acyl side, 3 side chain; linkers in the order of their positions; H or OH if unused. Non-standard residues stand in square brackets, D forms with d. Residues, ends and D or L forms follow the SMILES beside them. Groups on a side chain read outwards from the residue. *: point of attachment. X3 = O=C(O)CCCCCCCCCCCCCCCCCCC(=O)NC[C@H]1CC[C@H](C(=O)N[C@@H](CCC(=O)NCCOCCOCC(=O)NCCOCCOCC(=O)N[C@@H](CCCCN*)C(=O)O)C(=O)O)CC1; X2 = O=C(O)CCCCCCCCCCCCCCCCCCC(=O)NCC1CCC(C(=O)*)CC1; C20 diacid = O=C(O)CCCCCCCCCCCCCCCCCCC(=O)*; C18 diacid = O=C(O)CCCCCCCCCCCCCCCCC(=O)*; d(βAsp) = O=C(O)[C@@H](CC(=O)[*:2])N[*:1]; γGlu = O=C(O)[C@H](CCC(=O)[*:2])N[*:1]; 2Nal = N[C@@H](Cc1ccc2ccccc2c1)C(=O)O; Desaminohistidyl = O=C(CCc1c[nH]cn1)*; βAsp = O=C(O)[C@H](CC(=O)[*:2])N[*:1]; AEEA = NCCOCCOCC(=O)O; Aib = CC(C)(N)C(=O)O; Inp = O=C(O)C1CCNCC1

Each compound was assayed against human serum albumin (HSA) (Homo sapiens, UniProt P02768) (assay: Albumin binding affinity, competition scintillation proximity assay).
Sequence of human serum albumin (HSA) (P02768 25-609): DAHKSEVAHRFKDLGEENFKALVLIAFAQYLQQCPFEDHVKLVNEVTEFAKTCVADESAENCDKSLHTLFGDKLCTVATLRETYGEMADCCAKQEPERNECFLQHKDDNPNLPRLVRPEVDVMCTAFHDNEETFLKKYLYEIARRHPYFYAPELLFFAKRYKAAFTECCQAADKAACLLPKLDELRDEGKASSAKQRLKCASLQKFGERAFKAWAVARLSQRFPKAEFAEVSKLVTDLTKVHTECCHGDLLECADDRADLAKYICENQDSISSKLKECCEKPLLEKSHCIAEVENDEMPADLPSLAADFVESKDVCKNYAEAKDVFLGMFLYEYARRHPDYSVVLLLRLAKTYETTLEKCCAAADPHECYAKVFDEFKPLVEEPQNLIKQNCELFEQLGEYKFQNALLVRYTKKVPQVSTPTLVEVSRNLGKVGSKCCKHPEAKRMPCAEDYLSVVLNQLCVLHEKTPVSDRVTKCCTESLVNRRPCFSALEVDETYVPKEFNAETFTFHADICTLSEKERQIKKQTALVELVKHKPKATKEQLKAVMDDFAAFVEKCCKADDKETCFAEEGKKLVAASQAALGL
Method: Streptavidin-SPA beads (GE Healthcare RPNQ0009) were incubated with biotinylated HSA for 5 hours. The beads were washed with buffer to remove unbound HSA. […] After 20 hours of gentle rocking at room temperature the plates were centrifuged and counted on a TopCounter.

| EC50 [nM] | SMILES |
| --- | --- |
| 1 to 100 | CC[C@H](C)[C@H](NC(=O)[C@H](Cc1ccccc1)NC(=O)[C@H](CCC(=O)O)NC(=O)[C@H](CCCNC(=N)N)NC(=O)[C@H](C)NC(=O)[C@H](C)NC(=O)[C@H](CCC(N)=O)NC(=O)CNC(=O)[C@H](CCC(=O)O)NC(=O)[C@H](CC(C)C)NC(=O)[C@H](Cc1ccc(O)cc1)NC(=O)[C@H](CO)NC(=O)[C@H](CO)NC(=O)[C@@H](NC(=O)[C@H](CC(=O)O)NC(=O)[C@H](CO)NC(=O)[C@@H](NC(=O)[C@H](Cc1ccccc1)NC(=O)[C@@H](NC(=O)CNC(=O)[C@H](CCC(=O)O)NC(=O)[C@H](C)NC(=O)CCc1c[nH]cn1)[C@@H](C)O)[C@@H](C)O)C(C)C)C(=O)N[C@@H](C)C(=O)N[C@@H](Cc1c[nH]c2ccccc12)C(=O)N[C@@H](CC(C)C)C(=O)N[C@H](C(=O)N[C@@H](CCCNC(=N)N)C(=O)NCC(=O)N[C@@H](CCCNC(=N)N)C(=O)N[C@@H](CCCCNC(=O)COCCOCCNC(=O)CC[C@H](NC(=O)CC[C@H](NC(=O)CCCCCCCCCCCNC(=O)CCCS(=O)(=O)NC(=O)CCCCCCCCCCCCCCCc1nnn[nH]1)C(=O)O)C(=O)O)C(N)=O)C(C)C [Example 50] |
| 1 to 100 | CC[C@H](C)[C@H](NC(=O)[C@H](Cc1ccccc1)NC(=O)[C@H](CCC(=O)O)NC(=O)[C@H](CCCCNC(=O)COCCOCCNC(=O)CC[C@H](NC(=O)CC[C@H](NC(=O)CCCCCCCCCCCNC(=O)CCCS(=O)(=O)NC(=O)CCCCCCCCCCCCCCCc1nnn[nH]1)C(=O)O)C(=O)O)NC(=O)[C@H](C)NC(=O)[C@H](C)NC(=O)[C@H](CCC(N)=O)NC(=O)CNC(=O)[C@H](CCC(=O)O)NC(=O)[C@H](CC(C)C)NC(=O)[C@H](Cc1ccc(O)cc1)NC(=O)[C@H](CO)NC(=O)[C@H](CO)NC(=O)[C@@H](NC(=O)[C@H](CC(=O)O)NC(=O)[C@H](CO)NC(=O)[C@@H](NC(=O)[C@H](Cc1ccccc1)NC(=O)[C@@H](NC(=O)CNC(=O)[C@H](CCC(=O)O)NC(=O)C(C)(C)NC(=O)[C@@H](N)Cc1c[nH]cn1)[C@@H](C)O)[C@@H](C)O)C(C)C)C(=O)N[C@@H](C)C(=O)N[C@@H](Cc1c[nH]c2ccccc12)C(=O)N[C@@H](CC(C)C)C(=O)N[C@H](C(=O)N[C@@H](CCCNC(=N)N)C(=O)NCC(=O)N[C@@H](CCCNC(=N)N)C(N)=O)C(C)C [Example 44, N-epsilon26-[2-(2-{2-[(S)-4-Carboxy-4-((S)-4-carboxy-4-{12-[4-(16-(1H-tetrazol-5-yl)hexadecanoylsulfamoyl)butyrylamino]dodecanoylamino}butyrylamino)butyrylamino]ethoxy}ethoxy)acetyl][Aib8,Arg34]GLP-1-(7-36)amide] |

More lines, now with the values behind:

| SMILES | EC50 [nM] |
| --- | --- |
| CC[C@H](C)[C@H](NC(=O)[C@H](Cc1ccccc1)NC(=O)[C@H](CCC(=O)O)NC(=O)[C@H](CCCNC(=N)N)NC(=O)[C@H](C)NC(=O)[C@H](C)NC(=O)[C@H](CCC(N)=O)NC(=O)[C@H](CCC(=O)O)NC(=O)[C@H](CCC(=O)O)NC(=O)[C@H](CC(C)C)NC(=O)[C@H](Cc1ccc(O)cc1)NC(=O)[C@H](CO)NC(=O)[C@H](CO)NC(=O)[C@@H](NC(=O)[C@H](CC(=O)O)NC(=O)[C@H](CO)NC(=O)[C@@H](NC(=O)[C@H](Cc1ccccc1)NC(=O)[C@@H](NC(=O)CNC(=O)[C@H](CCC(=O)O)NC(=O)C(C)(C)NC(=O)[C@@H](N)Cc1c[nH]cn1)[C@@H](C)O)[C@@H](C)O)C(C)C)C(=O)N[C@@H](C)C(=O)N[C@@H](Cc1c[nH]c2ccccc12)C(=O)N[C@@H](CC(C)C)C(=O)N[C@H](C(=O)N[C@@H](CCCNC(=N)N)C(=O)NCC(=O)N[C@@H](CCCNC(=N)N)C(=O)NCC(=O)N[C@@H](CCCCNC(=O)COCCOCCNC(=O)COCCOCCNC(=O)CC[C@H](NC(=O)C1CCN(C(=O)CCCCCCCCCCCCCCCCCCC(=O)O)CC1)C(=O)O)C(N)=O)C(C)C [Example 12, [Aib8, Glu22, Arg26, Arg34]GLP-1-(7-37)Lys[2-(2-[2-(2-[2-(2-((S)-4-[1-[19-Carboxynonadecanoyl]piperidine-4-carbonylamino]-4-carboxybutyrylamino)ethoxy)ethoxy]acetylamino)ethoxy]ethoxy)acetyl]amide] (H-H[Aib]EGTFTSDVSSYLEEQAAREFIAWLVRGRGK([AEEA-AEEA-γGlu-Inp-C20 diacid])-NH2) | 300 to 800 |
| CC[C@H](C)[C@H](NC(=O)[C@H](Cc1ccccc1)NC(=O)[C@H](CCC(=O)O)NC(=O)[C@H](CCCNC(=N)N)NC(=O)[C@H](C)NC(=O)[C@H](C)NC(=O)[C@H](CCC(N)=O)NC(=O)CNC(=O)[C@H](CCC(=O)O)NC(=O)[C@H](CCCCNC(=O)COCCOCCNC(=O)COCCOCCNC(=O)C[C@@H](NC(=O)C1CCN(C(=O)CCCCCCCCCCCCCCCCC(=O)O)CC1)C(=O)O)NC(=O)[C@H](Cc1ccc(O)cc1)NC(=O)[C@H](CO)NC(=O)[C@H](CO)NC(=O)[C@@H](NC(=O)[C@H](CC(=O)O)NC(=O)[C@H](CO)NC(=O)[C@@H](NC(=O)[C@H](Cc1ccc2ccccc2c1)NC(=O)[C@@H](NC(=O)CNC(=O)[C@H](CCC(=O)O)NC(=O)C(C)(C)NC(=O)[C@@H](N)Cc1c[nH]cn1)[C@@H](C)O)[C@@H](C)O)C(C)C)C(=O)N[C@@H](CCC(=O)O)C(=O)N[C@@H](Cc1c[nH]c2ccccc12)C(=O)N[C@@H](CC(C)C)C(=O)N[C@H](C(=O)N[C@@H](CCCCN)C(=O)NCC(=O)N[C@@H](CCCNC(=N)N)C(=O)NCC(N)=O)C(C)C [Example 13, N-ε^20({2-[2-(2-{2-[2-((R)-3-carboxy-3-{[1-(17-carboxyheptadecanoyl)piperidine-4-carbonyl]amino}propionylamino)ethoxy]ethoxy}acetylamino)ethoxy]ethoxy}acetyl) [Aib^8,Lys^20,Arg^26,2-Naphtylalanine^12, Glu^30]GLP-1-(7-37)amide] (H-H[Aib]EGT[2Nal]TSDVSSYK([AEEA-AEEA-d(βAsp)-Inp-C18 diacid])EGQAAREFIEWLVKGRG-NH2; N-terminus assumed) | 150 to 300 |
| CC[C@H](C)[C@H](NC(=O)[C@H](Cc1ccccc1)NC(=O)[C@H](CCC(=O)O)NC(=O)[C@H](CCCNC(=N)N)NC(=O)[C@H](C)NC(=O)[C@H](C)NC(=O)[C@H](CCC(N)=O)NC(=O)[C@H](CCC(=O)O)NC(=O)[C@H](CCC(=O)O)NC(=O)[C@H](CC(C)C)NC(=O)[C@H](Cc1ccc(O)cc1)NC(=O)[C@H](CO)NC(=O)[C@H](CO)NC(=O)[C@@H](NC(=O)[C@H](CC(=O)O)NC(=O)[C@H](CO)NC(=O)[C@@H](NC(=O)[C@H](Cc1ccccc1)NC(=O)[C@@H](NC(=O)CNC(=O)[C@H](CCC(=O)O)NC(=O)[C@H](C)NC(=O)CCc1c[nH]cn1)[C@@H](C)O)[C@@H](C)O)C(C)C)C(=O)N[C@@H](C)C(=O)N[C@@H](Cc1c[nH]c2ccccc12)C(=O)N[C@@H](CC(C)C)C(=O)N[C@H](C(=O)N[C@@H](CCCNC(=N)N)C(=O)NCC(=O)N[C@@H](CCCNC(=N)N)C(=O)NCC(=O)N[C@@H](CCCCNC(=O)COCCOCCNC(=O)COCCOCCNC(=O)CC[C@H](NC(=O)C1CCC(CNC(=O)CCCCCCCCCCCCCCCCCCC(=O)O)CC1)C(=O)O)C(=O)O)C(C)C (stereo partly shown) [Example 56, [DesaminoHis7,Glu22,Arg26,34]-GLP-1 (7-37)-Lys-[2-(2-{2-[2-(2-{2-[4-Carboxy-4-({4-[(19-carboxynonadecanoylamino)methyl]cyclohexanecarbonyl}amino)butyrylamino]ethoxy}ethoxy)acetylamino]ethoxy}ethoxy)acetyl] peptide] (Desaminohistidyl-AEGTFTSDVSSYLEEQAAREFIAWLVRGRGK([AEEA-AEEA-γGlu-X2])-OH) | 150 to 300 |
| CC[C@H](C)[C@H](NC(=O)[C@H](Cc1ccccc1)NC(=O)[C@H](CCC(=O)O)NC(=O)[C@H](CCCNC(=N)N)NC(=O)[C@H](C)NC(=O)[C@H](C)NC(=O)[C@H](CCC(N)=O)NC(=O)[C@H](CCC(=O)O)NC(=O)[C@H](CCC(=O)O)NC(=O)[C@H](CC(C)C)NC(=O)[C@H](Cc1ccc(O)cc1)NC(=O)[C@H](CO)NC(=O)[C@H](CO)NC(=O)[C@@H](NC(=O)[C@H](CC(=O)O)NC(=O)[C@H](CO)NC(=O)[C@@H](NC(=O)[C@H](Cc1ccccc1)NC(=O)[C@@H](NC(=O)CNC(=O)[C@H](CCC(=O)O)NC(=O)C(C)(C)NC(=O)[C@@H](N)Cc1c[nH]cn1)[C@@H](C)O)[C@@H](C)O)C(C)C)C(=O)N[C@@H](C)C(=O)N[C@@H](CCCCNC(=O)COCCOCCNC(=O)COCCOCCNC(=O)C[C@H](NC(=O)C1CCN(C(=O)CCCCCCCCCCCCCCCCCCC(=O)O)CC1)C(=O)O)C(=O)N[C@@H](CC(C)C)C(=O)N[C@H](C(=O)N[C@@H](CCCNC(=N)N)C(=O)NCC(=O)N[C@@H](CCCNC(=N)N)C(=O)NCC(=O)O)C(C)C [Example 15, N-epsilon31-(2-{2-[2-(2-{2-[2-((S)-3-Carboxy-3-{[1-(19-carboxy-nonadecanoyl)piperidine-4-carbonyl]amino}propionylamino)ethoxy]ethoxy}acetylamino)ethoxy]ethoxy}acetyl)[Aib8,Glu22,Arg26,Lys31,Arg34]GLP-1-(7-37)] (H-H[Aib]EGTFTSDVSSYLEEQAAREFIAK([AEEA-AEEA-βAsp-Inp-C20 diacid])LVRGRG-OH) | 150 to 300 |
| CC[C@H](C)[C@H](NC(=O)[C@H](Cc1ccccc1)NC(=O)[C@H](CCC(=O)O)NC(=O)[C@H](CCCNC(=N)N)NC(=O)[C@H](C)NC(=O)[C@H](C)NC(=O)[C@H](CCC(N)=O)NC(=O)[C@H](CCC(=O)O)NC(=O)[C@H](CCC(=O)O)NC(=O)[C@H](CC(C)C)NC(=O)[C@H](Cc1ccc(O)cc1)NC(=O)[C@H](CO)NC(=O)[C@H](CO)NC(=O)[C@@H](NC(=O)[C@H](CC(=O)O)NC(=O)[C@H](CO)NC(=O)[C@@H](NC(=O)[C@H](Cc1ccccc1)NC(=O)[C@@H](NC(=O)CNC(=O)[C@H](CCC(=O)O)NC(=O)[C@H](C)NC(=O)CCc1c[nH]cn1)[C@@H](C)O)[C@@H](C)O)C(C)C)C(=O)N[C@@H](C)C(=O)N[C@@H](Cc1c[nH]c2ccccc12)C(=O)N[C@@H](CC(C)C)C(=O)N[C@H](C(=O)N[C@@H](CCCNC(=N)N)C(=O)NCC(=O)N[C@@H](CCCNC(=N)N)C(=O)NCCCC[C@H](NC(=O)COCCOCCNC(=O)COCCOCCNC(=O)CC[C@H](NC(=O)[C@H]1CC[C@H](CNC(=O)CCCCCCCCCCCCCCCCCCC(=O)O)CC1)C(=O)O)C(=O)O)C(C)C [Example 53, N-alpha37-[2-(2-{2-[2-(2-{2-[(S)-4-Carboxy-4-({trans-4-[(19-carboxynonadecanoylamino)methyl]cyclohexanecarbonyl}amino)butyrylamino]ethoxy}ethoxy)acetylamino]ethoxy}ethoxy)acetyl][DesaminoHis7,Glu22,Arg26,Arg34,epsilon-Lys37]GLP-1-(7-37)] (Desaminohistidyl-AEGTFTSDVSSYLEEQAAREFIAWLVRGR-X3) | 1 to 100 |
